{
  "source": "patent EP4257135A1",
  "about": "“BENZIMIDAZOLE DERIVATIVES FOR PULMONARY ARTERIAL HYPERTENSION” (Justus-Liebig-Universität Gießen, priority 2022, dated 2023)",
  "tested_on": "PAH-FBs",
  "test": "Apoptosis by Cell Death Detection ELISAPLUS in PAH fibroblasts",
  "type": "cell-based, human",
  "conditions": "PAH-FBs isolated ex vivo; various concentrations; vs DMSO; 24 h",
  "description": "Diese Untersuchungen führten zu der Erkenntnis, dass die epigenetische Regulation der entwicklungsbedingten TF-Expression in der Lunge durch Modulation der EP300/CREBBP-Funktion rückgängig gemacht werden kann. Die Wirkung des niedermolekularen Inhibitors (Substanz, Wirkstoff) SGC-CBP30 auf die Proliferation von Gefäßzellen, die Apoptose sowie die Gen- und Proteinexpression wurde mit Hilfe geeigneter Assays nach der Transfektion untersucht. Nachdem Zellen zur Subkonfluenz gewachsen sind, wurde ihnen mit steigenden Konzentrationen der selektive EP300-Inhibitor SGC-CBP30 (Sigma, Katalognummer: SML1133) hinzugefügt. Die aus PAH-Patienten isolierten FBs wurden also mit dem isoformselektiven HAT-Inhibitor SGC-CBP30 behandelt. Gleichzeitig wurde den Zellen das Lösungsmittel DMSO (Sigma) mit entsprechenden Konzentrationen hinzugefügt. […]\n• A: PAH-FBs wurden mit siRNAs (siP300) behandelt, die auf EP300 abzielen (n=3), um die genspezifische funktionelle Rolle von EP300 bei der Hyperproliferation ex vivo 48 Stunden nach der Transfektion zu untersuchen. […] Skalenbalken: 50 µm. • E: Die Wirkung der P300-Inhibition (200 µM) auf den Gefäßumbau wurde durch Quantifizierung der prozentualen medialen Wanddicke in den mit dem EP300/CREBBP-Inhibitor SGC-CBP30 inkubierten PCLS im Vergleich zu den mit DMSO inkubierten Kontrollen bewertet. […]",
  "data": [
    {"smiles": "COc1ccc(CCc2nc3cc(-c4c(C)noc4C)ccc3n2C[C@H](C)N2CCOCC2)cc1Cl", "note": "[SGC-CBP30, 2-[2-(3-Chloro-4-methoxyphenyl)ethyl]-5-(3,5-dimethyl-1,2-oxazol-4-yl)-1-[(S)-2-(morpholin-4-yl)propyl]-1H-benzimidazole]", "values": [
      {"measurement": "Apoptoserate", "value": "schwächte den hyperproliferativen Phänotyp und die Apoptoserate von PAH-FBs und PAH-SMCs deutlich ab"}
    ]}
  ]
}
